Measurements: US20130217702A1 (Richter Gedeon Nyrt., priority 2010, published 2013)

What was measured:
[1] = biological target: T1, human recombinant bradykinin B1 receptor (Homo sapiens, UniProt P46663); test: Human recombinant bradykinin B1 receptor competitive radioligand binding; details: hB1 expressed in CHO cells, [3H]-[Des-Arg10] Kallidin radioligand; read-out: B1 binding
T1 construct: host or cells: CHO cells, clone hB1-A5
T1 sequence (P46663 1-353): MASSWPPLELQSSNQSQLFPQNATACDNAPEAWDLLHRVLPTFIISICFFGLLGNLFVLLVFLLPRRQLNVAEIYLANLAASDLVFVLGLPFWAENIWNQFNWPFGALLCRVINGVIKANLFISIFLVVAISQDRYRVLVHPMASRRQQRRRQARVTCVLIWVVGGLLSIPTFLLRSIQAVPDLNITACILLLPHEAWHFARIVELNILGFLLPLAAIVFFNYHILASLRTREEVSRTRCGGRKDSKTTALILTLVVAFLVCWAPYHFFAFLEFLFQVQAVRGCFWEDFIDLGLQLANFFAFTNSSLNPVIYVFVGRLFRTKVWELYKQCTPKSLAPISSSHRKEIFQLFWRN
Method in brief: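 Competition radioligand binding on CHO-expressed hB1 membranes, using [3,4-prolyl-3,4-^3H(N)]-[Des-Arg^10] Kallidin as tracer, 15 min at 25° C. Excess Lys-des-Arg^9-Bradykinin (10 μM) set nonspecific binding. Sigmoidal fits of at least seven concentrations gave IC50, converted to Ki via Cheng-Prusoff; KD from Scatchard.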

[2] = biological target: T2, recombinant human B1 receptors (Homo sapiens, UniProt P46663); test: Functional assay: antagonist potency by cytosolic calcium measurement (plate reader fluorimeter) in CHO-B1 cells, agonist LysDABK; type: cell-based; details: CHO-B1 cells, inhibition of LysDABK (EC80)-evoked [Ca2+]i elevation; read-out: B1 func.
T2 construct: host or cells: CHO (CHO-B1)
T2 sequence (P46663 1-353): T1 sequence (P46663 1-353)
Method in brief: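 IC50 is the concentration giving half-maximal inhibition of the LysDABK (EC80) calcium response, fitted from at least three experiments. CHO cells stably expressing human B1 were dye-loaded, exposed to compound for 20-25 min, then read by fluo-4 fluorescence (ΔF/F) at 37 °C.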

Cc1nc(-c2c(Cl)c3ccccc3n2-c2ccc(CNC(=O)C3(NC(=O)C4(C#N)CC4)CC3)cc2)no1 [Example 142, 1-Cyano-cyclopropanecarboxylic acid (1-{4-[3-chloro-2-(5-methyl-[1,2,4]oxadiazol-3-yl)-indol-1-yl]-benzylcarbamoyl}-cyclopropyl)-amide]
Ki [1]: < 20 nM
IC50 [2]: 20 to 100 nM

COc1ccc2c(c1)cc(-c1nnc(C)o1)n2-c1ccc(CNC(=O)C2(NC(=O)CC(F)(F)F)CC2)cc1 [Example 124, 1-(3,3,3-Trifluoro-propionylamino)-cyclopropanecarboxylic acid 4-[5-methoxy-2-(5-methyl-[1,3,4]oxadiazol-2-yl)-indol-1-yl]-benzylamide]
Ki [1]: 20 to 100 nM
IC50 [2]: 20 to 100 nM

Cc1nnc(-c2c(Cl)c3ccccc3n2-c2ccc(CNC(=O)C3(NC(=O)c4cncnc4)CC3)cc2)o1 [Example 184, Pyrimidine-5-carboxylic acid (1-{4-[3-chloro-2-(5-methyl-[1,3,4]oxadiazol-2-yl)-indol-1-yl]-benzylcarbamoyl}-cyclopropyl)-amide]
Ki [1]: < 20 nM
IC50 [2]: < 20 nM

Cn1nnc(-c2c(Cl)c3ccccc3n2-c2ccc(CNC(=O)C3(NC(=O)c4cccnc4Cl)CC3)cc2)n1 [Example 27, 2-Chloro-N-(1-{4-[3-chloro-2-(2-methyl-2H-tetrazol-5-yl)-indol-1-yl]-benzylcarbamoyl}-cyclopropyl)-nicotinamide]
Ki [1]: < 20 nM
IC50 [2]: < 20 nM

Cc1nc(-c2c(F)c3cc(F)ccc3n2-c2ccc(CNC(=O)C3(NC(=O)C(F)(F)F)CC3)cc2)no1 [Example 199, 1-(2,2,2-Trifluoro-acetylamino)-cyclopropanecarboxylic acid 4-[3,5-difluoro-2-(5-methyl-[1,2,4]oxadiazol-3-yl)-indol-1-yl]-benzylamide]
Ki [1]: < 20 nM
IC50 [2]: < 20 nM

COc1cc(C(=O)NC2(C(=O)NCc3ccc(-n4c(-c5noc(C)n5)c(C)c5cc(F)ccc54)cc3)CC2)on1 [Example 200, 3-Methoxy-isoxazole-5-carboxylic acid (1-{4-[5-fluoro-3-methyl-2-(5-methyl-[1,2,4]oxadiazol-3-yl)-indol-1-yl]-benzylcarbamoyl}-cyclopropyl)-amide]
Ki [1]: < 20 nM
IC50 [2]: < 20 nM

COc1cc(C(=O)NC2(C(=O)NCc3ccc(-n4c(-c5cnco5)c(Cl)c5ccccc54)cc3)CC2)on1 [Example 16, 3-Methoxy-isoxazole-5-carboxylic acid (1-{4-[3-chloro-2-(1,3-oxazol-5-yl)-indol-1-yl]-benzylcarbamoyl}-cyclopropyl)-amide]
Ki [1]: < 20 nM
IC50 [2]: < 20 nM

COc1cc(C(=O)NC2(C(=O)NCc3ccc(-n4c(-c5noc(C)n5)c(F)c5cc(F)ccc54)cc3)CC2)on1 [Example 198, 3-Methoxy-isoxazole-5-carboxylic acid (1-{4-[3,5-difluoro-2-(5-methyl-[1,2,4]oxadiazol-3-yl)-indol-1-yl]-benzylcarbamoyl}-cyclopropyl)-amide]
Ki [1]: < 20 nM
IC50 [2]: < 20 nM

COc1ccc2c(c1)c(Cl)c(-c1noc(C)n1)n2-c1ccc(CNC(=O)C2(NC(=O)C(F)(F)F)CC2)cc1 [Example 63, 1-(2,2,2-Trifluoro-acetylamino)-cyclopropanecarboxylic acid 4-[3-chloro-5-methoxy-2-(5-methyl-[1,2,4]oxadiazol-3-yl)-indol-1-yl]-benzylamide]
Ki [1]: < 20 nM
IC50 [2]: < 20 nM

Cc1cc(C(=O)NC2(C(=O)NCc3ccc(-n4c(-c5noc(C)n5)c(Cl)c5ccccc54)cc3F)CC2)no1 [Example 107, 5-Methyl-isoxazole-3-carboxylic acid (1-{4-[3-chloro-2-(5-methyl-[1,2,4]oxadiazol-3-yl)-indol-1-yl]-2-fluoro-benzylcarbamoyl}-cyclopropyl)-amide]
Ki [1]: < 20 nM
IC50 [2]: < 20 nM

COc1cc(C(=O)NC2(C(=O)NCc3ccc(-n4c(-c5nnn(C)n5)c(Cl)c5cc(F)ccc54)cc3)CC2)on1 [Example 13, 3-Methoxy-isoxazole-5-carboxylic acid (1-{4-[3-chloro-5-fluoro-2-(2-methyl-2H-tetrazol-5-yl)-indol-1-yl]-benzylcarbamoyl}-cyclopropyl)-amide]
Ki [1]: < 20 nM
IC50 [2]: < 20 nM

COC(=O)c1cc2ccccc2n1-c1ccc(CNC(=O)C2(NC(=O)c3cc(OC)no3)CC2)cc1 [Example 14, 1-{4-[({1-[(3-Methoxy-isoxazole-5-carbonyl)-amino]-cyclopropanecarbonyl}-amino)-methyl]-phenyl}-1H-indole-2-carboxylic acid methyl ester]
Ki [1]: < 20 nM
IC50 [2]: < 20 nM

Cc1nc(-c2c(Cl)c3ccccc3n2-c2ccc(CNC(=O)C3(NC(=O)c4ccc(C(F)(F)F)c(F)c4)CC3)cc2)no1 [Example 93, N-(1-{4-[3-Chloro-2-(5-methyl-[1,2,4]oxadiazol-3-yl)-indol-1-yl]-benzylcarbamoyl}-cyclopropyl)-3-fluoro-4-trifluoromethyl-benzamide]
Ki [1]: 20 to 100 nM
IC50 [2]: 20 to 100 nM

COc1ccc2c(c1)c(Cl)c(-c1nc(C)no1)n2-c1ccc(CNC(=O)C2(NC(=O)c3cccnc3F)CC2)cc1 [Example 118, N-(1-{4-[3-Chloro-5-methoxy-2-(3-methyl-[1,2,4]oxadiazol-5-yl)-indol-1-yl]-benzylcarbamoyl}-cyclopropyl)-2-fluoro-nicotinamide]
Ki [1]: < 20 nM
IC50 [2]: < 20 nM

Cn1nnc(-c2c(Cl)c3cc(F)ccc3n2-c2ccc(CNC(=O)C3(NC(=O)C(F)(F)F)CC3)c(F)c2)n1 [Example 19]
Ki [1]: < 20 nM
IC50 [2]: < 20 nM

Cn1nnc(-c2c(Cl)c3ccccc3n2-c2ccc(CNC(=O)C3(NC(=O)C(F)(F)F)CC3)c(F)c2)n1 [Example 4, 1-(2,2,2-Trifluoro-acetylamino)-cyclopropanecarboxylic acid 4-[3-chloro-2-(2-methyl-2H-tetrazol-5-yl)-indol-1-yl]-2-fluorobenzylamide]
Ki [1]: < 20 nM
IC50 [2]: < 20 nM

Cc1nc(-c2c(Cl)c3ccccc3n2-c2ccc(CNC(=O)C3(NC(=O)C(F)(F)F)CC3)cc2)no1 [Example 23, 1-(2,2,2-Trifluoro-acetylamino)-cyclopropanecarboxylic acid 4-[3-chloro-2-(5-methyl-[1,2,4]oxadiazol-3-yl)-indol-1-yl]-benzylamide]
Ki [1]: < 20 nM
IC50 [2]: < 20 nM

Cc1ccc(C(=O)NC2(C(=O)NCc3ccc(-n4c(-c5noc(C)n5)c(Cl)c5ccccc54)cc3)CC2)cn1 [Example 154, N-(1-{4-[3-Chloro-2-(5-methyl-[1,2,4]oxadiazol-3-yl)-indol-1-yl]-benzylcarbamoyl}-cyclopropyl)-6-methyl-nicotinamide]
Ki [1]: < 20 nM
IC50 [2]: < 20 nM

Cc1nc(-c2c(Cl)c3ccccc3n2-c2ccc(CNC(=O)C3(NC(=O)CC(F)(F)F)CC3)cc2)no1 [Example 163, 1-(3,3,3-Trifluoro-propionylamino)-cyclopropanecarboxylic acid 4-[3-chloro-2-(5-methyl-[1,2,4]oxadiazol-3-yl)-indol-1-yl]-benzylamide]
Ki [1]: < 20 nM
IC50 [2]: < 20 nM

COc1ccc2c(c1)c(Cl)c(C#N)n2-c1ccc(CNC(=O)C2(NC(=O)c3cc(OC)no3)CC2)cc1 [Example 52, 3-Methoxy-isoxazole-5-carboxylic acid {1-[4-(3-chloro-2-cyano-5-methoxy-indol-1-yl)-benzylcarbamoyl]-cyclopropyl}-amide]
Ki [1]: < 20 nM
IC50 [2]: < 20 nM

Cc1nc(-c2c(Cl)c3ccccc3n2-c2ccc(CNC(=O)C3(NC(=O)c4cccs4)CC3)cc2)no1 [Example 172, Thiophene-2-carboxylic acid (1-{4-[3-chloro-2-(5-methyl-[1,2,4]oxadiazol-3-yl)-indol-1-yl]-benzylcarbamoyl}-cyclopropyl)-amide]
Ki [1]: < 20 nM
IC50 [2]: < 20 nM

COC(=O)c1c(Cl)c2ccccc2n1-c1ccc(CNC(=O)C2(NC(=O)c3cc(OC)no3)CC2)cc1 [Example 11, 3-Chloro-1-{4-[({1-[(3-methoxy-isoxazole-5-carbonyl)-amino]-cyclopropane-carbonyl}-amino)-methyl]-phenyl}-1H-indole-2-carboxylic acid methyl ester]
Ki [1]: < 20 nM
IC50 [2]: < 20 nM

Cc1cccc(C(=O)NC2(C(=O)NCc3ccc(-n4c(-c5noc(C)n5)c(Cl)c5ccccc54)cc3)CC2)c1 [Example 179, N-(1-{4-[3-Chloro-2-(5-methyl-[1,2,4]oxadiazol-3-yl)-indol-1-yl]-benzylcarbamoyl}-cyclopropyl)-3-methyl-benzamide]
Ki [1]: < 20 nM
IC50 [2]: 20 to 100 nM

COc1cc(C(=O)NC2(C(=O)NCc3ccc(-n4c(-c5nnn(C)n5)c(Cl)c5ccccc54)cc3F)CC2)on1 [Example 15, 3-Methoxy-isoxazole-5-carboxylic acid (1-{4-[3-chloro-2-(2-methyl-2H-tetrazol-5-yl)-indol-1-yl]-2-fluorobenzylcarbamoyl}-cyclopropyl)-amide]
Ki [1]: < 20 nM
IC50 [2]: < 20 nM
